Assay results as given in ChEMBL document CHEMBL1154336, “The discovery and optimisation of benzazepine sulfonamide and sulfones as potent agonists of the motilin receptor” (Bioorg Med Chem Lett, 2009).
pEC50, pIC50, pKi: −log10 of the molar value.

Tests used:
[1] = biological target: T1, Growth hormone secretagogue receptor type 1 (Homo sapiens, UniProt Q92847); assay: Agonist activity at human ghrelin receptor; assay type: functional
Motilin receptor = Motilin receptor (Homo sapiens, UniProt O43193); assay: Agonist activity at human recombinant motilin receptor expressed in CHO cells by FLIPR assay; assay type: functional, cell-based
Sequence of Motilin receptor (O43193 whole entry): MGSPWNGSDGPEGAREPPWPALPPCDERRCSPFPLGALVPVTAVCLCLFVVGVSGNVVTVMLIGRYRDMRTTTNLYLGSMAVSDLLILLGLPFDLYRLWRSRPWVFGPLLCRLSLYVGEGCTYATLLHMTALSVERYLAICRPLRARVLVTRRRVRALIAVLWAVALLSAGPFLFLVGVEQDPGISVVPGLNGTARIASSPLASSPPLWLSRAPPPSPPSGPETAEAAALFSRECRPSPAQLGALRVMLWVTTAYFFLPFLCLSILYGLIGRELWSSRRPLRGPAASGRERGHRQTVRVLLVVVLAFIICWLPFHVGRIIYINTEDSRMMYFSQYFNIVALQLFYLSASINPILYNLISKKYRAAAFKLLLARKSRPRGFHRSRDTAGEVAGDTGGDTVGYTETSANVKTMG

Cytochrome P450 2D6 = Cytochrome P450 2D6 (Homo sapiens, UniProt P10635); assay: Inhibition of human recombinant CYP2D6; assay type: ADME
Sequence of Cytochrome P450 2D6 (P10635 whole entry): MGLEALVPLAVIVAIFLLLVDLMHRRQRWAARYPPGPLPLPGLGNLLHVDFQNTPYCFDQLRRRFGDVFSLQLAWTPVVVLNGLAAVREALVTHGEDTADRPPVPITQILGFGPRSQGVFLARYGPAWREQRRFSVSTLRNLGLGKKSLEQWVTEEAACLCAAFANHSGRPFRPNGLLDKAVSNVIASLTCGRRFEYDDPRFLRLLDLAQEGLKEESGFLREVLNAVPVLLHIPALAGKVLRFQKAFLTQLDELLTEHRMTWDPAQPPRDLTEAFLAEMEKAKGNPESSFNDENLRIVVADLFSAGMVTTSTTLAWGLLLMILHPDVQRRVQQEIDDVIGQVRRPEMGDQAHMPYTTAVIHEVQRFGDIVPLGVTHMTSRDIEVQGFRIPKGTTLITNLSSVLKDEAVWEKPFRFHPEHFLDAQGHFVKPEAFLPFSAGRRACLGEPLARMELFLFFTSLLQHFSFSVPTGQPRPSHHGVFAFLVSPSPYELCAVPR

Liver microsomes [2] = assay: Intrinsic clearance in human liver microsomes after 30 mins; assay type: ADME, Microsome; conditions: 0.5 h
Liver microsomes [3] = assay: Intrinsic clearance in rat liver microsomes after 30 mins; assay type: ADME, Microsome; conditions: 0.5 h
Stomach [4] = assay: Increase in electric field stimulated contractile response in New Zealand White rabbit gastric antrum at 3 uM after 60 mins; assay type: functional; conditions: Oryctolagus cuniculus, 1 h
[5] = biological target: T1, Growth hormone secretagogue receptor type 1; assay: Intrinsic activity at human ghrelin receptor relative to ghrelin
Stomach [6] = assay: Increase in electric field stimulated contractile response in New Zealand White rabbit gastric antrum at 1 uM after 60 mins; assay type: functional; conditions: Oryctolagus cuniculus, 1 h
[7] = biological target: 5-hydroxytryptamine receptor 6 (Homo sapiens, UniProt P50406); assay: Agonist activity at 5HT6 receptor; assay type: functional
Sequence of 5-hydroxytryptamine receptor 6 (P50406 whole entry): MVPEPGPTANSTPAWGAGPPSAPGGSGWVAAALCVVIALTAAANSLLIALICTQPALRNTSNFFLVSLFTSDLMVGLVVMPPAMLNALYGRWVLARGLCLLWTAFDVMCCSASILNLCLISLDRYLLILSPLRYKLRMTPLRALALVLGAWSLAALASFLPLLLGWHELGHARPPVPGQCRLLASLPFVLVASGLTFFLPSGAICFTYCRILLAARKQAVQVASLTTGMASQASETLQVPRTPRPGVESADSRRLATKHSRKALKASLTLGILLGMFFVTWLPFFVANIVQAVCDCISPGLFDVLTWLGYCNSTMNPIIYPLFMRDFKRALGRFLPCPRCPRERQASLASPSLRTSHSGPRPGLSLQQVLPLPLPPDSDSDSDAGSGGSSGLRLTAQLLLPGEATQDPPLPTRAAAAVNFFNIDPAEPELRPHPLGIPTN

D(3) dopamine receptor = D(3) dopamine receptor (Homo sapiens, UniProt P35462); assay: Agonist activity at dopamine D3 receptor; assay type: functional
Sequence of D(3) dopamine receptor (P35462 whole entry): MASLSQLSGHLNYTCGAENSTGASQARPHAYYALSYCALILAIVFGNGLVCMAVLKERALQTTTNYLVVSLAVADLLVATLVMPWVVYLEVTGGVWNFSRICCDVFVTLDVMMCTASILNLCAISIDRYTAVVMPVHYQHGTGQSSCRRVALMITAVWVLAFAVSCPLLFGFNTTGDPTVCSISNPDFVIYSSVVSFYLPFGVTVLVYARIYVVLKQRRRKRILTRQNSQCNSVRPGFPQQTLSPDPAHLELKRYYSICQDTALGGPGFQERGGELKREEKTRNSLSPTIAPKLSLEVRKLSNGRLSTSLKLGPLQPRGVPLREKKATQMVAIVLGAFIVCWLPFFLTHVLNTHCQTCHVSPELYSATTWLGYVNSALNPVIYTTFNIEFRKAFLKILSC

D(2) dopamine receptor = D(2) dopamine receptor (Homo sapiens, UniProt P14416); assay: Agonist activity at dopamine D2 receptor; assay type: functional
Sequence of D(2) dopamine receptor (P14416 whole entry): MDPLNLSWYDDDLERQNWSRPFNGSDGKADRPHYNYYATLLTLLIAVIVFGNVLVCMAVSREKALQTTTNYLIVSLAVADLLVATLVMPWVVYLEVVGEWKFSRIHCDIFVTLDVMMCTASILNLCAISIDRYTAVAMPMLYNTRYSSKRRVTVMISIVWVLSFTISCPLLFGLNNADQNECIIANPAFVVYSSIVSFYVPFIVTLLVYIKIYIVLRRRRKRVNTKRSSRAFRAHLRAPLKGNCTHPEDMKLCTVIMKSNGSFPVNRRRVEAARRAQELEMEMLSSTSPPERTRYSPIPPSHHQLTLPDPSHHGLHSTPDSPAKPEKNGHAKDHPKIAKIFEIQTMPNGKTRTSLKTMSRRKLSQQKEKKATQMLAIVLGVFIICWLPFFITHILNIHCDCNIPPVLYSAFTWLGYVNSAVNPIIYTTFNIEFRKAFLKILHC

Cytochrome P450 3A4 [8] = biological target: T2, Cytochrome P450 3A4 (Homo sapiens, UniProt P08684); assay: Inhibition of human recombinant CYP3A4 using 7-{3-(4-phenylpiperazin-1-ylmethyl)benzyl}resorufin as substrate; assay type: ADME
T2 sequence (P08684 whole entry): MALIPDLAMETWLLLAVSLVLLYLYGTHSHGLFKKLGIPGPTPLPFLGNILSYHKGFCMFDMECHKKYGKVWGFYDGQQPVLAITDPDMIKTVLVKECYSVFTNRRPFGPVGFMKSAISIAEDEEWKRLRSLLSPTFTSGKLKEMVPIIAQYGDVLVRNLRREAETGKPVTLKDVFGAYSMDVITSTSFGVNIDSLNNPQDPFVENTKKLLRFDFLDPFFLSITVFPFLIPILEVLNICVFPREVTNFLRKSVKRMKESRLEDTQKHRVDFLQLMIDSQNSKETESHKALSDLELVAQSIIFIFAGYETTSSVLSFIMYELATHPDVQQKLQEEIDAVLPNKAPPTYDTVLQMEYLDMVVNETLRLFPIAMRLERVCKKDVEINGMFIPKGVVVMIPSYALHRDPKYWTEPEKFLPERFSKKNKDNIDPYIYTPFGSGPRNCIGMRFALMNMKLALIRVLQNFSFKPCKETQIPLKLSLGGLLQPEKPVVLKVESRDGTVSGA

Cytochrome P450 3A4 [9] = biological target: T2, Cytochrome P450 3A4; assay: Inhibition of human recombinant CYP3A4 using diethoxyfluorescein as substrate; assay type: ADME

T1 sequence (Q92847 whole entry): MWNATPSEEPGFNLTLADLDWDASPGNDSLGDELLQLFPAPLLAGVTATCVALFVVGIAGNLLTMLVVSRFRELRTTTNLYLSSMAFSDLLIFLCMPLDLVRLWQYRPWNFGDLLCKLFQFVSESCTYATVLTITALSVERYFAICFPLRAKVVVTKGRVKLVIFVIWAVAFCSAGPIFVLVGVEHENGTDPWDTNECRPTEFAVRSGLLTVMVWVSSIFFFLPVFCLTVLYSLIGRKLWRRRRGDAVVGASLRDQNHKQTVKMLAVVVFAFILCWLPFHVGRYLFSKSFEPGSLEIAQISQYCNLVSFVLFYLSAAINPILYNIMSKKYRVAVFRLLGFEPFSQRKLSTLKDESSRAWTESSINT

Row | Compound | pEC50 [1] | pEC50 (Motilin receptor) | other results
1 | O=S(=O)(Cc1ccc2c(c1)CCNCC2)c1ccc(-c2ccc(F)cc2)cc1 | < 5.00 | 7.90 | pIC50 (Cytochrome P450 2D6): 6.70; CL (Liver microsomes [2]): < 1 mL/min/g; CL (Liver microsomes [3]): < 1 mL/min/g; Emax at 3 µM (Stomach [4]): 166%
2 | O=C(Nc1ccc(F)cc1)c1ccc(S(=O)(=O)Cc2ccc3c(c2)CCNCC3)cn1 |  | 5.70 | 
3 | O=C(Nc1ccc2c(c1)CCNCC2)c1ccc(N2CCOCC2)nc1 |  | < 4.90 | 
4 | CC(C)COc1ccc(S(=O)(=O)Cc2ccc3c(c2)CCNCC3)cn1 | < 6.00 | 7.40 | 
5 | CCCCc1ccc(S(=O)(=O)Nc2ccc3c(c2)CCN(Cc2cc[nH]n2)CC3)cc1 |  |  | Intrinsic activity [5]: 0.7; Emax at 1 µM (Stomach [6]): 47%
6 | CC1(C)CCc2cc(S(=O)(=O)Nc3ccc4c(c3)CCN(Cc3cc[nH]n3)CC4)ccc2O1 | 6.20 | 8.30 | pIC50 (Cytochrome P450 2D6): 6.30
7 | CCCCc1ccc(S(=O)(=O)Nc2ccc3c(c2)CCN(Cc2cnc(C)[nH]2)CC3)cc1 | 7.70 | 7.20 | Intrinsic activity [5]: 0.5
8 | Cc1ccc(S(=O)(=O)Nc2ccc3c(c2)CCN(Cc2ccn[nH]2)CC3)cc1Cl | 7.10 | 7.40 | pKi [7]: 8.20; pKi (D(3) dopamine receptor): 7.00; pKi (D(2) dopamine receptor): 6.40
9 | CCCCc1ccc(S(=O)(=O)Nc2ccc3c(c2)CCNCC3)cc1 |  | 5.80 | 
10 | CC(C)(C)c1ccc(S(=O)(=O)Cc2ccc3c(c2)CCNCC3)cc1 | < 5.00 | 5.50 | 
11 | CCCCc1ccc(S(=O)(=O)Nc2ccc3c(c2)CCN(C2CCCC2)CC3)cc1 | < 6.00 | 6.70 | 
12 | O=S(=O)(Nc1ccc2c(c1)CCN(Cc1cc[nH]n1)CC2)c1ccc(-c2ccccc2)cc1 | 5.80 | 8.00 | pIC50 (Cytochrome P450 2D6): > 7.00; pKi [7]: 6.90; pKi (D(3) dopamine receptor): 7.50; Intrinsic activity [5]: 0.7; pIC50 (Cytochrome P450 3A4 [8]): > 7.00; pKi (D(2) dopamine receptor): 6.20; pIC50 (Cytochrome P450 3A4 [9]): > 7.00
13 | O=S(=O)(Cc1ccc2c(c1)CCNCC2)c1ccccc1 | < 5.00 | < 4.90 | 
14 | O=S(=O)(Cc1ccc2c(c1)CCNCC2)c1ccc(-c2ccc(Cl)cc2)nc1 | < 6.00 | 8.10 | pIC50 (Cytochrome P450 2D6): > 7.00; CL (Liver microsomes [2]): < 1 mL/min/g; CL (Liver microsomes [3]): < 1 mL/min/g

The next lines start with results.

Row | pEC50 [1] | pEC50 (Motilin receptor) | Compound | other results
15 | < 6.00 | 6.80 | CC(C)Oc1ccc(S(=O)(=O)Cc2ccc3c(c2)CCNCC3)cn1 | pIC50 (Cytochrome P450 2D6): 5.80
16 |  | < 4.90 | CN(C(=O)c1ccc(N2CCOCC2)nc1)c1ccc2c(c1)CCNCC2 | 
17 | < 6.00 | 5.60 | O=S(=O)(Cc1ccccc1)Nc1ccc2c(c1)CCN(Cc1ccn[nH]1)CC2 | 
18 | < 6.00 | 7.30 | CCCCc1ccc(S(=O)(=O)Nc2ccc3c(c2)CCN(Cc2ccc(NC(C)=O)s2)CC3)cc1 | 
19 |  | 5.60 | CCCCc1ccc(S(=O)(=O)N(C)c2ccc3c(c2)CCNCC3)cc1 | 
20 |  | 5.50 | CCCCc1ccc(S(=O)(=O)Nc2ccc3c(c2)CCN(Cc2cncn2C)CC3)cc1 | 
21 | < 6.00 | 7.20 | O=S(=O)(Cc1ccc2c(c1)CCNCC2)c1ccc(N2CCCCC2)nc1 | pIC50 (Cytochrome P450 2D6): 5.96
22 |  | < 5.60 | CCCCc1ccc(S(=O)(=O)Nc2ccc3c(c2)CCN(C2CCN(C(C)=O)CC2)CC3)cc1 | 
23 |  | < 5.50 | CCCCc1ccc(S(=O)(=O)Nc2ccc3c(c2)CCN(Cc2ccccc2)CC3)cc1 | 
24 | < 6.00 | 7.70 | O=S(=O)(Cc1ccc2c(c1)CCNCC2)c1ccc(Nc2ccc(F)cc2)nc1 | pIC50 (Cytochrome P450 2D6): 6.52; CL (Liver microsomes [2]): < 1 mL/min/g; CL (Liver microsomes [3]): < 0.5 mL/min/g
25 | 8.40 | 8.10 | CCCCc1ccc(S(=O)(=O)Nc2ccc3c(c2)CCN(Cc2cnc[nH]2)CC3)cc1 | Intrinsic activity [5]: 0.4
26 |  | < 4.90 | O=C(Nc1ccc(N2CCOCC2)nc1)c1ccc2c(c1)CCNCC2 | 
